Data published in patent US7399748B2, “Antitumor therapy comprising distamycin derivatives” (Nerviano Medical Sciences S.r.l., priority 2001, dated 2008).

Test system: solid tumors
Experiment: Phase I trial, iv single administration every three weeks in patients with solid tumors
Format: in vivo
Settings: one patient suffering from gastrointestinal sarcoma, dose level 5.1 mg/m^2, iv single administration every three weeks
Experimental: A phase I pharmacological trial was carried out to investigate the iv administration of the title compound given as a single administration every three weeks to patients with solid tumors.
The starting dose of 0.85 mg/m^2 was initially escalated in an accelerated design (100% dose increase; 1 patient/dose level) and then by a conventional dose escalation in 3-6 patient cohorts. 11 patients have been entered so far and 25 cycles have been evaluated for toxicity at dose levels of 0.85, 1.7, 3.4, 5.1 and 7.5 mg/M^2.

In the case of `C=C(Br)C(=O)Nc1cc(C(=O)Nc2cc(C(=O)Nc3cc(C(=O)Nc4cc(C(=O)NCCNC(=N)N)n(C)c4)n(C)c3)n(C)c2)n(C)c1.Cl` [PNU 166196, N-(5-{[(5-{[(5-{[(2-{[amino(imino)methyl]amino}ethyl)amino]carbonyl}-1-methyl-1H-pyrrol-3-yl)amino]carbonyl}-1-methyl-1H-pyrrol-3-yl)amino]carbonyl}-1-methyl-1H-pyrrol-3-yl)-4-[(2-bromoacryloyl)amino]-11-methyl-1H-pyrrole-2-carboxamide hydrochloride], the tumor response is reported as “partial response”.
